Test systems include HCC-2998 colon; A549 NSCLC; NCI-H226 lung; HT29 colon; TK-10 renal; SF-268 CNS; HCT-116 colon; NCI-H23 lung.
Holding throughout (assay): DTP human tumour cell line panel, 48 h

“And” between values parts separate entries of the source, which are not always exact repeats. Equal entries are not always repeated.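 Exposure lasted 48 hours, with cells grown in 96-well plates and compounds tested at five concentrations. GI50 = concentration required for 50% inhibition of growth. TGI: concentration producing complete growth inhibition.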 Where only a bound is given, the exact number is not on record here.

In general, GI50 refers to the concentration that inhibits growth by half. Usually TGI stands for the concentration at which net growth stops. Regarding `O=c1cc(-c2ccccc2)oc2cc(OC/C(=N/O)c3ccc(F)cc3)ccc12`, the GI50 is 15.3 µM with HCC-2998 colon; 20.1 µM in the assay with A549 NSCLC; 27.6 µM in the assay with NCI-H226 lung; 29.6 µM with HT29 colon; 13.7 µM in the assay with TK-10 renal; 19.7 µM in the assay with SF-268 CNS. In addition, the GI50 in the assay on HCT-116 colon was 23.4 µM; with NCI-H23 lung it was 31.8 µM. Also, the TGI is 45.8 µM in the assay with HCC-2998 colon; more than 50 µM in the assay on A549 NSCLC; more than 50 µM in the assay on NCI-H226 lung; more than 50 µM with HT29 colon; 31.8 µM with TK-10 renal; more than 50 µM in the assay with SF-268 CNS. In addition, the TGI in the assay on HCT-116 colon and with NCI-H23 lung was more than 50 µM each time.

Regarding `Cc1cn(-c2ccc(S(C)(=O)=O)cc2)c(-c2ccc(Cl)cc2)n1`, the GI50 in the assay with HCC-2998 colon, with A549 NSCLC, with NCI-H226 lung, in the assay on HT29 colon, in the assay on TK-10 renal and in the assay on SF-268 CNS was more than 100 µM each time. Moreover, the GI50 with HCT-116 colon and in the assay on NCI-H23 lung was more than 100 µM throughout. Further, the TGI in the assay on HCC-2998 colon, with A549 NSCLC, in the assay with NCI-H226 lung, in the assay on HT29 colon, in the assay on TK-10 renal and in the assay with SF-268 CNS was more than 100 µM in each case. Also, the TGI with HCT-116 colon and with NCI-H23 lung was more than 100 µM throughout.

Take `CN1CCN(CCOc2cc(OC3CCOCC3)c3c(Nc4c(Cl)ccc5c4OCO5)ncnc3c2)CC1`: the GI50 in the assay with HCC-2998 colon is 17.7 µM and > 10 µM; with A549 NSCLC it was 5.27 µM and 3.26 µM; in the assay on NCI-H226 lung it was 15.7 µM and > 10 µM; in the assay with HT29 colon it was 0.634 µM and 1.26 µM; with TK-10 renal, 0.671 µM and 0.517 µM; in the assay on SF-268 CNS it was 4.72 µM and > 10 µM. Further, the GI50 was 8.75 µM and 2.76 µM in the assay on HCT-116 colon; 12.2 µM and > 10 µM in the assay on NCI-H23 lung. The TGI in the assay with HCC-2998 colon is 37.7 µM and > 10 µM; in the assay on A549 NSCLC, 25.9 µM and > 10 µM; with NCI-H226 lung, 38.9 µM and > 10 µM; in the assay on HT29 colon, 5.47 µM and > 10 µM; in the assay on TK-10 renal, 6.4 µM and > 10 µM; in the assay on SF-268 CNS it was 33.8 µM and > 10 µM. The TGI in the assay on HCT-116 colon is 29.2 µM and > 10 µM; with NCI-H23 lung, 57.1 µM and > 10 µM.

In the case of `C=C1C(=O)O[C@H]2[C@H]1CC/C(COC(=O)NCCc1c[nH]c3ccc(Cl)cc13)=C\CC[C@@]1(C)O[C@@H]21`, the GI50 with HCC-2998 colon is 1.96 µM; with A549 NSCLC, 2.28 µM; with NCI-H226 lung it was 1.92 µM; in the assay with HT29 colon, 1.46 µM; in the assay on TK-10 renal, 1.59 µM; with SF-268 CNS it was 1.77 µM. For the same molecule, the GI50 with HCT-116 colon is 1.56 µM; in the assay on NCI-H23 lung, 1.79 µM. The TGI with HCC-2998 colon turned out to be 4.03 µM; in the assay with A549 NSCLC it was 5.84 µM; with NCI-H226 lung, 3.64 µM; in the assay with HT29 colon it was 3.24 µM; in the assay on TK-10 renal, 2.97 µM; in the assay on SF-268 CNS it was 3.37 µM. Further, the figures for the TGI in the assay on HCT-116 colon and in the assay on NCI-H23 lung were 2.97 µM and 3.49 µM, respectively.

For the molecule `Oc1[nH]c2ccccc2c1N=Nc1c(F)c(F)c(F)c(F)c1F`, the TGI is more than 100 µM with HCC-2998 colon; more than 100 µM in the assay on A549 NSCLC; more than 100 µM in the assay on NCI-H226 lung; more than 100 µM in the assay with HT29 colon; 62.8 µM in the assay on TK-10 renal; more than 100 µM in the assay with SF-268 CNS. Moreover, the TGI in the assay on HCT-116 colon and in the assay on NCI-H23 lung was more than 100 µM in each case.

Take `Cc1cnc(Nc2ccc(N3CCN(C)CC3)cc2)nc1Nc1ccc(Cl)c(NS(=O)(=O)C(C)(C)C)c1`: the GI50 was 0.383 µM with HCC-2998 colon; 0.339 µM with A549 NSCLC; 0.23 µM in the assay with NCI-H226 lung; 0.0961 µM with HT29 colon; 0.0638 µM with TK-10 renal; 0.474 µM in the assay on SF-268 CNS. The GI50 with HCT-116 colon is 0.0917 µM; with NCI-H23 lung, 0.379 µM. Moreover, the TGI with HCC-2998 colon worked out at 1.84 µM; with A549 NSCLC, 1.81 µM; with NCI-H226 lung, 2.09 µM; in the assay with HT29 colon it was 4.19 µM; in the assay on TK-10 renal, 0.936 µM; in the assay on SF-268 CNS, 3.54 µM. The values for the TGI with HCT-116 colon and in the assay with NCI-H23 lung were 2.73 µM and 6.55 µM, respectively.

In the case of `COc1ccc(N(/C=C/C(=O)C(F)(F)F)CC(=O)c2ccc(Cl)cc2)cc1`, the GI50 with HCC-2998 colon was 17 µM; with A549 NSCLC, 29.6 µM; with NCI-H226 lung it was 16.5 µM; in the assay with HT29 colon, 25 µM; in the assay on TK-10 renal, 17.7 µM; in the assay with SF-268 CNS it was 16.3 µM. Besides, the GI50 with HCT-116 colon was 7.62 µM; in the assay with NCI-H23 lung, 15.3 µM. The TGI is 36.2 µM in the assay with HCC-2998 colon; 87.8 µM in the assay on A549 NSCLC; 31.6 µM in the assay on NCI-H226 lung; 95.6 µM in the assay on HT29 colon; 40.8 µM in the assay on TK-10 renal; 34.9 µM in the assay on SF-268 CNS. Moreover, the values for the TGI in the assay with HCT-116 colon and in the assay on NCI-H23 lung were 26.6 µM and 35 µM, respectively.

Consider `COc1cccc(C2C3=C(COC3=O)N(CCO)c3cc4c(cc32)OCO4)c1` (stereo not given), for which the GI50 is 0.211 µM with HCC-2998 colon; 0.631 µM in the assay on A549 NSCLC; 23.2 µM in the assay on NCI-H226 lung; 0.154 µM with HT29 colon; 0.725 µM with TK-10 renal; 1.53 µM in the assay with SF-268 CNS. The values for the GI50 in the assay on HCT-116 colon and in the assay with NCI-H23 lung were 0.235 µM and 0.589 µM, respectively. Moreover, the TGI with HCC-2998 colon is 1.2 µM; in the assay on A549 NSCLC it was more than 50 µM; in the assay with NCI-H226 lung, more than 50 µM; in the assay with HT29 colon, 1.58 µM; in the assay with SF-268 CNS, 49.2 µM; with HCT-116 colon, more than 16.1 µM. This molecule also gave a TGI in the assay with NCI-H23 lung of more than 14.2 µM.

`CCOC(=O)c1ccc2c(c1)[n+](=O)c(C(C)=O)c(C(F)(F)F)n2[O-]`: the GI50 is 1.05 µM in the assay with HCC-2998 colon; 2.04 µM with A549 NSCLC; 1.8 µM with NCI-H226 lung; 1.58 µM in the assay with HT29 colon; 1.39 µM in the assay on TK-10 renal; 1.49 µM in the assay with SF-268 CNS. In addition, the values for the GI50 in the assay with HCT-116 colon and with NCI-H23 lung were 1.39 µM and 1.54 µM, respectively. In addition, the TGI in the assay with HCC-2998 colon worked out at 2.45 µM; in the assay with A549 NSCLC it was 4.39 µM; in the assay with NCI-H226 lung, 3.93 µM; with HT29 colon, 3.11 µM; in the assay with TK-10 renal it was 3.25 µM; in the assay on SF-268 CNS, 2.93 µM. For the same molecule, the figures for the TGI in the assay with HCT-116 colon and with NCI-H23 lung were 3.34 µM and 3.43 µM, respectively.

For the origin of these results see PubChem BioAssay (NCI).
